Measured values from patent publication US9982005B2, “Macrolides and methods of their preparation and use” (President and Fellows of Harvard College, priority 2013, dated 2018).
≈ marks a conversion by molar mass, not a printed value. Read-outs that look alike come from different tables or passages of the source.

Key:
Assay type in all cases: cell-based
[1] = test system: SA101 S. aureus ATCC29213; experiment: broth dilution MIC, S. aureus SA101; details: Staphylococcus aureus, ATCC29213, SA101 S. aureus ATCC29213; read-out: MIC
In short: (§1)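 An azithromycin control accompanied the test macrolides, which were assayed by CLSI-standard broth microdilution-type MIC determination. Some strains carry constitutive or inducible macrolide-resistance genotypes.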

[2] = test system: SA183 S. aureus ermA positive msrA unknown; experiment: broth dilution MIC, S. aureus SA183; details: Staphylococcus aureus
Description: (§2) We have collected MIC data for a total of 50 novel macrolides that this platform has produced against over 21 unique strains of B. subtilis, E. coli, S. aureus, S. pneumoniae, and H. influenzae, including several multidrug-resistant strains, with a special focus on macrolide resistant mechanisms (vide supra). Azithromycin was included as a control macrolide. CLSI standard procedures for broth dilution MIC determination were used. […] These genotypes can be constitutive or inducible. The finding that C4-epi (unnatural) isomers of the “azaketolide” macrolide class have enhanced activities relative to C4 natural isomers is very exciting.

[3] = test system: SA418 S. aureus ermA negative msrA positive; experiment: broth dilution MIC, S. aureus SA418; details: Staphylococcus aureus
Description: as §2

[4] = test system: SA506 S. aureus ermA positive msrA unknown; experiment: broth dilution MIC, S. aureus SA506; details: Staphylococcus aureus
Description: as §2

[5] = test system: SA557 S. aureus ermA unknown msrA positive; experiment: broth dilution MIC, S. aureus SA557; details: Staphylococcus aureus; SA557 S. aureus ermA unknown msrA positive; read-out: MIC
Description: as §2

[6] = test system: SA1707 S. aureus ermA negative msrA positive; experiment: broth dilution MIC, S. aureus SA1707; details: Staphylococcus aureus
Description: as §2

[7] = test system: SA1708 S. aureus ermA positive msrA negative; experiment: broth dilution MIC, S. aureus SA1708; details: Staphylococcus aureus
Description: as §2

[8] = test system: Spn 106 S. pneumonia ATCC49619; experiment: broth dilution MIC, S. pneumoniae Spn 106; details: Streptococcus pneumoniae; Spn 106 S. pneumonia ATCC49619; read-out: MIC
Description: as §2

[9] = test system: Spn160 S. pneumoniae ermB unknown mefA positive; experiment: broth dilution MIC, S. pneumoniae Spn160; details: Streptococcus pneumoniae; Spn160 S. pneumoniae ermB unknown mefA positive; read-out: MIC
Description: as §2

[10] = test system: Spn1509 S. pneumoniae ermB positive mefA negative; experiment: broth dilution MIC, S. pneumoniae Spn1509; details: Streptococcus pneumoniae; Spn1509 S. pneumoniae ermB positive mefA negative; read-out: MIC
Description: as §2

[11] = test system: Spn1533 S. pneumoniae ermB positive mefA positive; experiment: broth dilution MIC, S. pneumoniae Spn1533; details: Streptococcus pneumoniae
Description: as §2

[12] = test system: Spn1537 S. pneumoniae ermB positive mefA positive; experiment: broth dilution MIC, S. pneumoniae Spn1537; details: Streptococcus pneumoniae
Description: as §2

[13] = test system: Spn1427 S. pneumoniae ermB positive mefA negative; experiment: broth dilution MIC, S. pneumoniae Spn1427; details: Streptococcus pneumoniae
Description: as §2

[14] = test system: HI175 H. influenzae ATCC49247; experiment: broth dilution MIC, H. influenzae HI175; details: Haemophilus influenzae
Description: as §2

HI281 H. influenzae = experiment: broth dilution MIC, H. influenzae HI281; details: Haemophilus influenzae
Description: as §2

E. coli strains = experiment: MIC against E. coli strains (Table M7); details: Escherichia coli, ATCC25922, E. coli ATCC 25922
In short: as §1

S. aureus strains = experiment: MIC against S. aureus strains (Table M7); details: for MIC: Staphylococcus aureus
In short: as §1

S. pneumoniae strains = experiment: MIC against S. pneumoniae strains (Tables M7, M8); details: for MIC: Streptococcus pneumoniae
Description: CLSI standard procedures for broth dilution MIC determination were used. […] These genotypes can be constitutive or inducible.

E. faecalis strains = experiment: MIC against E. faecalis strains (Table M8); details: Enterococcus faecalis, E. faecalis 29212
A. baumannii strains = experiment: MIC against A. baumannii strains (Table M8); details: Acinetobacter baumannii, BAA747, A. baumannii BAA747-1
K. pneumoniae strains = experiment: MIC against K. pneumoniae strains (Table M8); details: Klebsiella pneumoniae, K. pneumoniae 10031
H. influenzae strains = experiment: MIC against H. influenzae strains (Table M8); details: Haemophilus influenzae
In short: as §1

[15] = ATCC29213, S. aureus ATCC 29213, read-out: MIC S. aureus (ATCC 29213)
[16] = S. aureus 506, read-out: MIC S. aureus (506)
[17] = S. aureus 1708, read-out: MIC S. aureus (1708)
[18] = USA300, S. aureus USA300, read-out: MIC S. aureus (USA300)
[19] = S. pneumoniae 160, read-out: MIC S. pneumonae (160)
[20] = S. pneumoniae 1509, read-out: MIC S. pneumoniae (1509)
[21] = S. pneumoniae 1533, read-out: MIC S. pneumoniae (1533)
[22] = S. pneumoniae 1537, read-out: MIC S. pneumoniae (1537)
[23] = S. pneumoniae 49619, read-out: MIC S. pneumoniae (49619)
[24] = H. influenzae 49247, read-out: MIC H. influenzae (49247)
[25] = H. influenzae 49766, read-out: MIC H. influenzae (49766)

| Structure (SMILES) | MIC [1] [µg/mL] | MIC [2] [µg/mL] | MIC [3] [µg/mL] | MIC [4] [µg/mL] | MIC [5] [µg/mL] | MIC [6] [µg/mL] | MIC [7] [µg/mL] | MIC [8] [µg/mL] | MIC [9] [µg/mL] | MIC [10] [µg/mL] | MIC [11] [µg/mL] | MIC [12] [µg/mL] | MIC [13] [µg/mL] | MIC [14] [µg/mL] | MIC (HI281 H. influenzae) [µg/mL] | MIC (E. coli strains) [µg/mL] | MIC (S. aureus strains; [15]) [µg/mL] | MIC (S. aureus strains; [16]) [µg/mL] | MIC (S. aureus strains; [17]) [µg/mL] | MIC (S. aureus strains; [18]) [µg/mL] | other results |
| --- | --- | --- | --- | --- | --- | --- | --- | --- | --- | --- | --- | --- | --- | --- | --- | --- | --- | --- | --- | --- | --- |
| CC[C@H]1OC(=O)C(C)(F)C(=O)[C@H](C)[C@@H](O[C@@H]2OC(C)CC(N(C)C)C2O)[C@](C)(OC)C[C@@H](C)CN(C)[C@H](C)[C@H]2N(CCCCn3cc(-c4cccc(N)c4)nn3)C(=O)O[C@]12C (stereo partly drawn) [FSM-20797] | 4 (≈ 4.65 µM) | > 32 | 4 (≈ 4.65 µM) | > 32 | 8 (≈ 9.3 µM) | 8 (≈ 9.3 µM) | 8 (≈ 9.3 µM) | ≤ 0.0156 | 0.125 (≈ 0.145 µM) | 4 (≈ 4.65 µM) | > 32 | > 32 | 32 (≈ 37.2 µM) | 8 (≈ 9.3 µM) | 32 (≈ 37.2 µM) | 32 (≈ 37.2 µM) | 8 (≈ 9.3 µM) | > 32 | 8 (≈ 9.3 µM) | 8 (≈ 9.3 µM) | MIC (S. pneumoniae strains; [19]): 0.25 µg/mL (≈ 0.291 µM); MIC (S. pneumoniae strains; [20]): 16 µg/mL (≈ 18.6 µM); MIC (S. pneumoniae strains; [21]): > 32 µg/mL; MIC (S. pneumoniae strains; [22]): > 32 µg/mL; MIC (S. pneumoniae strains; [23]): 0.5 µg/mL (≈ 0.581 µM); MIC (E. faecalis strains): 1 µg/mL (≈ 1.16 µM); MIC (A. baumannii strains): > 32 µg/mL; MIC (K. pneumoniae strains): 8 µg/mL (≈ 9.3 µM); MIC (H. influenzae strains; [24]): 4 µg/mL (≈ 4.65 µM); MIC (H. influenzae strains; [25]): 16 µg/mL (≈ 18.6 µM) |
| CC[C@H]1OC(=O)C(C)(F)C(=O)[C@H](C)[C@@H](O[C@@H]2OC(C)CC(N(C)C)C2O)[C@](C)(OC)C[C@@H](C)CN[C@H](C)[C@H]2N(CCCCn3cc(-c4cccc(N)c4)nn3)C(=O)O[C@]12C (stereo partly drawn) [FSM-20795] | 0.25 to 0.5 (≈ 0.295 to 0.591 µM) | > 32 | 0.5 to 1 (≈ 0.591 to 1.18 µM) | > 32 | 0.25 to 0.5 (≈ 0.295 to 0.591 µM) | 0.5 to 1 (≈ 0.591 to 1.18 µM) | 0.5 (≈ 0.591 µM) | ≤ 0.0156 | 0.0312 (≈ 0.0369 µM) | 0.125 to 0.25 (≈ 0.148 to 0.295 µM) | 16 (≈ 18.9 µM) | 32 (≈ 37.8 µM) | 1 to 2 (≈ 1.18 to 2.36 µM) | 1 to 2 (≈ 1.18 to 2.36 µM) | 4 to 8 (≈ 4.73 to 9.46 µM) | 4 (≈ 4.73 µM) | 0.5 (≈ 0.591 µM) | > 32 | 0.25 (≈ 0.295 µM) | 1 (≈ 1.18 µM) | MIC S. aureus (1708) (S. aureus strains; S. aureus 1708): 0.5 µg/mL (≈ 0.591 µM); MIC (S. aureus strains; S. aureus 183, read-out: MIC S. aureus (183)): > 32 µg/mL; MIC S. pneumoniae (1509) (S. pneumoniae strains; S. pneumoniae 1509): 1 µg/mL (≈ 1.18 µM); MIC (S. pneumoniae strains; [19]): ≤ 0.0625 µg/mL; MIC (S. pneumoniae strains; [20]): 0.5 µg/mL (≈ 0.591 µM); MIC (S. pneumoniae strains; [21]): > 32 µg/mL; MIC (S. pneumoniae strains; [22]): > 32 µg/mL; MIC (S. pneumoniae strains; [23]): ≤ 0.0625 µg/mL; MIC (E. faecalis strains): 0.125 µg/mL (≈ 0.148 µM); MIC (A. baumannii strains): 16 µg/mL (≈ 18.9 µM); MIC (K. pneumoniae strains): 2 µg/mL (≈ 2.36 µM); MIC (H. influenzae strains; [24]): 0.5 µg/mL (≈ 0.591 µM); MIC (H. influenzae strains; [25]): 4 µg/mL (≈ 4.73 µM) |
